In a melting point compilation (Tetko et al.; mined from patent text by program, amines drawn as free bases though some values may be those of a salt) one finds melting point data, which are given here for 35 molecules.

In general, melting point refers to the temperature of the solid-liquid transition.

`CC(C)(C)C(=O)OCn1nc2ccc(OCCCN3CCC(OC(c4ccccc4)c4ccccc4)CC3)nn2c1=O`: the melting point lay in the range of 108 to 110 °C. Molecule `Cc1ncsc1CCOS(N)(=O)=O` displayed a melting point of 80 to 83 °C. In the case of `CCOC(=O)c1c(C(F)(F)F)nc(C(F)F)c(C(=O)OC)c1NCC#N`, the melting point is 87 to 89 °C. In the case of `COC(=O)c1cc2ccc(OC)cc2n1CCN1CCC(N)CC1` it was 101 °C; in that of `CCCCC(CC)Nc1cc(C)nc(Cl)c1[N+](=O)[O-]` (stereo not given), 48 to 49 °C; in that of `CC(C)(SSc1ccccc1C(=O)Nc1ccc(S(N)(=O)=O)cc1)C(N)C(=O)O` (stereo not given), 115 to 118 °C.

`Cc1cc2cc(Oc3ccccc3)cnc2cc1C`: the melting point came to 224 °C.

`CC1(C)OC(=C(C#N)C#N)C(C#N)=C1c1ccc(-c2cn(-c3ccccc3)nn2)cc1`: the melting point was 298 °C. In the case of `Cc1ccccc1C(=S)N1CC1C#N` (stereo not given) it was 67 to 69 °C; in that of `CC(=O)C(=O)N1C(C(=O)OCc2ccccc2)CC2CCCCC21` (stereo not given), 50 to 55 °C; in that of `CCCCC#Cc1cc(C=CCC(=O)O)ccc1OC`, 102 °C. In the case of `COc1cc(C2C3=C(COC3=O)N(Cc3ccc([N+](=O)[O-])cc3)c3cc4c(cc32)OCO4)cc(OC)c1OC` (stereo not given) it was 240 °C; in that of `O=c1[nH]c2cc(F)c(NCC3=CCCOC3)cc2o1`, 175 to 176 °C; in that of `COc1ccc(C(C)N(C)CCCCOc2ccc(S(=O)(=O)c3c(C(C)C)cn4ccccc34)cc2)cc1OC` (stereo not given), 84 to 86 °C.

The molecule `CCOP(=O)(NC(=O)c1cc(=O)c2ccccc2o1)OCC` displayed a melting point of 182 to 183 °C.

Turning to `C=CCOc1ccc(C(=O)N[C@@H](C)c2cccc3ccccc23)cc1`, the melting point lay within 141 to 143 °C. The value for `COc1cccc2c1nc(C(F)F)n2-c1nc(N2CCOCC2)c2ncn(-c3cccnc3)c2n1` was 229 to 231 °C; that for `CCCC[C@H](NC(=O)[C@H](CCCC)NC(=O)OCc1ccccc1)C(=O)CSCc1ccco1` was 95 to 97 °C; that for `Nc1nc2ccc(OC(F)(F)F)c([N+](=O)[O-])c2s1` was 180 °C. The value for `CCOC(=O)c1cnnn1C[C@@H]1CN(c2ccc(N3CCC(=CC#N)CC3)c(F)c2)C(=O)O1` was 70 to 72 °C; that for `CCOC(=O)N1CCC(Nc2nc3cccnc3n2Cc2ccc(CO)o2)CC1` was 148 °C. In the case of `CC1(C)C(C=C2C(C(F)(F)F)C2(F)F)C1C(=O)O` (stereo not given) it was 45.7 °C.

Consider `COc1cc(OC)c2c(c1)S(=O)(=O)NC2=O`, for which the melting point is 258 °C.

In the case of `COc1ccc(C(=O)Nc2ccc3ccc(Oc4ccccc4)nc3n2)cc1`, the melting point was 160 °C. The molecule `C(=Cc1ccc(OCCCCc2nnn[nH]2)cc1)c1ccncc1` returned a melting point of 158 to 159 °C. In the case of `CC1(C)CCc2ccccc2C1n1cncc1C1SCCS1` (stereo not given) it was 109 °C; in that of `Cc1ccc2c(c1)C(O)CC21CCN(CCCC(=O)c2ccc(F)cc2)C1` (stereo not given), 137 to 139 °C.

As to `Oc1cc2c(cc1O)OCC(c1ccc(F)cc1)C2` (stereo not given), the melting point is 135 to 137 °C.

`Cc1csc(C(O)(c2nc(C)cs2)C(F)(F)F)n1` had a melting point of 140 to 142 °C. The value for `CS(=O)(=O)Nc1cccc(Nc2nc(NCCO)c3nc[nH]c3n2)c1` was 163 to 166 °C; that for `COc1ccc(C(=O)O)cc1C1(C)CCCCC1` was 199 °C. In the case of `COC(=O)C(=CNc1ccc(F)cc1)C(=O)C=Cc1ccc(Cl)cc1` it was 166 to 168 °C.

For `COc1cccc2c1CCC=C2N1CCOCC1`, the melting point fell in the range of 80 to 90 °C.

Molecule `Brc1cc(-c2c3ccccc3c(Br)c3sc4ccccc4c23)cc(Br)c1OCc1nnn[nH]1` returned a melting point of 243 to 245 °C. The molecule `CC(=O)CNC(=O)Nc1cc(-c2c(-c3ccc(F)c(C)c3)nc3cccnn23)ccn1` returned a melting point of 208 to 209 °C.
